In this experiment the target is T1, Tyrosine-protein phosphatase non-receptor type 1 (Homo sapiens, UniProt P18031).
T1 sequence (P18031 whole entry): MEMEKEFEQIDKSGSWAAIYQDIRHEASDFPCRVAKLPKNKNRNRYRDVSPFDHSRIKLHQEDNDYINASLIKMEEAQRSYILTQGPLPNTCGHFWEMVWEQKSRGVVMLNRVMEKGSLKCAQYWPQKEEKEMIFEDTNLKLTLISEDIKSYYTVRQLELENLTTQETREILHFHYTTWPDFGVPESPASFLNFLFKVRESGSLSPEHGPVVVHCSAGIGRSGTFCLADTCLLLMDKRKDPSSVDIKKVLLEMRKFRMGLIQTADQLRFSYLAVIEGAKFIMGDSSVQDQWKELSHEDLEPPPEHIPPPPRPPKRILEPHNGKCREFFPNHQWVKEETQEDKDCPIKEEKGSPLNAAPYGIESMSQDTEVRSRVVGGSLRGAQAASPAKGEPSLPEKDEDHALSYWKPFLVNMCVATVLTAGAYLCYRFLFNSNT
Put plainly: In Vitro PTP1B Inhibition Assay. The method, then:
10 mM stock solution (in assay buffer containing 1% DMSO) of the test compounds were prepared. Taking suitable aliquots from this stock solution, five different concentrations were made by dilutions. […] A 96 well microtiter plate was used for carrying out the assay using 10 mM DMSO as control. The reaction was carried out in 96 well, flatbottomed microtiter plates at 10 mM concentration using DMSO as control.

A word on the IC50: it is the midpoint of a concentration-inhibition curve. A high value points to weaker potency in that assay.

`COc1cc(/C=C2\SC(=O)NC2=O)ccc1OS(=O)(=O)Cc1ccccc1` [(Z)-4-((2,4-dioxothiazolidin-5-ylidene)methyl)-2-methoxyphenyl phenylmethanesulfonate (20)] displayed an IC50 of 59.9 µM.

With `COc1cc(/C=C2\SC(=O)NC2=O)ccc1OS(=O)(=O)c1c(C)cc(C)cc1C` [(Z)-4-((2,4-dioxothiazolidin-5-ylidene)methyl)-2-methoxyphenyl-2,4,6-trimethylbenzenesulphonate (15)], the concentration for half-maximal inhibition (IC50) turned out to be 26.9 µM.

`COc1cc(/C=C2\SC(=O)NC2=O)ccc1OS(=O)(=O)c1ccccc1[N+](=O)[O-]` [(Z)-4-((2,4-dioxothiazolidin-5-ylidene)methyl)-2-methoxyphenyl-2-nitrobenzenesulfonate (19)] showed an IC50 of 50.4 µM. This IC50 is about 1.9-fold higher than that of the molecule before.

`COc1cc(/C=C2\SC(=O)NC2=O)ccc1OS(=O)(=O)c1ccc(Br)cc1` [(Z)-4-((2,4-dioxothiazolidin-5-ylidene)methyl)-2-methoxyphenyl-4-bromobenzenesulfonate (18)] yielded a concentration for half-maximal inhibition (IC50) of 21.8 µM.

With `COc1cc(/C=C2\SC(=O)NC2=O)ccc1OS(=O)(=O)c1ccc(Cl)cc1` [(Z)-4-((2,4-dioxothiazolidin-5-ylidene)methyl)-2-methoxyphenyl-4-chlorobenzenesulfonate (17)], half-maximal inhibition (IC50) required 25.3 µM.

As to `COc1ccc(S(=O)(=O)Oc2ccc(/C=C3\SC(=O)NC3=O)cc2OC)cc1` [(Z)-4-((2,4-dioxothiazolidin-5-ylidene)methyl)-2-methoxyphenyl-4-methoxybenzene sulfonate (14)], the IC50 was 28.2 µM.

Turning to `COc1cc(/C=C2\SC(=O)NC2=O)ccc1OS(=O)(=O)c1ccc(C)cc1` [(Z)-4-((2,4-dioxothiazolidin-5-ylidene)methyl)-2-methoxyphenyl-4-methylbenzenesulfonate (12)], the midpoint of inhibition, the IC50, lay at 19 µM.

Turning to `COc1cc(/C=C2\SC(=O)NC2=O)ccc1OS(=O)(=O)c1ccccc1` [(Z)-4-((2,4-dioxothiazolidin-5-ylidene)methyl)-2-methoxyphenylbenzenesulfonate (13)], half-maximal inhibition (IC50) was put at 7.31 µM.

Molecule `COc1cc(/C=C2\SC(=O)NC2=O)ccc1OS(C)(=O)=O` [(Z)-4-((2,4-dioxothiazolidin-5-ylidene)methyl)-2-methoxyphenylmethane sulfonate (16)] returned an IC50 of 8.73 µM.

In turn, `COc1cc(/C=C2\SC(=O)NC2=O)ccc1OS(=O)(=O)c1ccc2ccccc2c1` [(Z)-4-((2,4-dioxothiazolidin-5-ylidene)methyl)-2-methoxyphenylnaphthalene-2-sulfonate (21)] came in with a half-inhibitory concentration (IC50) of 61.4 µM. Compared with the last molecule, the IC50 is about 7-fold higher.
